Values of other authors, collected in patent US5780494A, “Piperidinyl-terminated alkylamino ethynl alanine amino diol compounds for treatment of hypertension” (G. D. Searle & Co., priority 1997, dated 1998).
Square brackets hold non-standard residues; d marks the D form. Peptide text beside a SMILES is read from it. * marks the point of attachment. Sta = CC(C)C[C@H](N)[C@@H](O)CC(=O)O; Isovaleryl = CC(C)CC(=O)*

Columns and labels:
[1] = test system: hog renin; details: after the injection of hog renin into nephrectomized rats
[2] = test system: pepsin
[3] = test system: cathepsin D
[4] = test system: renin

## CC(C)CC(=O)N[C@H](C(=O)N[C@H](C(=O)N[C@@H](CC(C)C)[C@@H](O)CC(=O)N[C@@H](C)C(=O)N[C@@H](CC(C)C)[C@@H](O)CC(=O)O)C(C)C)C(C)C [pepstatin] (Isovaleryl-VV[Sta]A[Sta]-OH)
[1]
  blood pressure reduction: found to reduce blood pressure
[2]
  inhibition of pepsin: inhibitor
[3]
  inhibition of cathepsin D: inhibitor
[4]
  inhibition of renin: inhibitor
